Like-named read-outs stand apart in the source and are kept apart here.
Experiments:
mTOR = molecular target: T1, mTOR (Homo sapiens, UniProt P42345); assay: mTOR kinase inhibition assay (radiometric or LanthaScreen TR-FRET); type: biochemical; conditions: read-out: mTORC IC50
T1 construct: purchased Invitrogen

PI3K α (p110α/p85α) = molecular target: T2, PI3K α (p110α/p85α) (Homo sapiens, UniProt P42336); assay: PI 3-Kinase (human) HTRF assay, PI3K α; type: biochemical; conditions: read-out: PI3K α IC50
T2 construct: purchased Upstate / Millipore Corporation

PI3K β (p110β/p85α) = molecular target: T3, PI3K β (p110β/p85α) (Homo sapiens, UniProt P42338); assay: PI 3-Kinase (human) HTRF assay, PI3K β; type: biochemical; conditions: read-out: PI3K β IC50
T3 construct: purchased Upstate / Millipore Corporation

PI3K γ (p110γ) = molecular target: T4, PI3K γ (p110γ) (Homo sapiens, UniProt P48736); assay: PI 3-Kinase (human) HTRF assay, PI3K γ; type: biochemical; conditions: read-out: PI3K γ IC50
T4 construct: purchased Upstate / Millipore Corporation

PI3K δ = molecular target: T5, PI3K δ (Homo sapiens, UniProt O00329); assay: PI 3-Kinase (human) HTRF assay, PI3K δ; type: biochemical; conditions: read-out: PI3K δ IC50
T5 construct: purchased Upstate / Millipore Corporation

PC3 = PC3 proliferation; type: cell-based; conditions: Homo sapiens, PC-3; PC3 cell line (compounds before 438); read-out: PC3 proliferation (nM)*
T47D [1] = assay: T47D proliferation; type: cell-based; conditions: Homo sapiens; T47D cell line
T47D [2] = assay: T47D proliferation; type: cell-based; conditions: Homo sapiens; T47D cell line; remark: listed apart in the source
MDA-MB-361 = MDA-MB-361 proliferation; type: cell-based
[3] = system: preclinical breast cancer model; assay: Preclinical breast cancer model, tumor weight / volume; type: in vivo; conditions: 70 mg/kg Pan-PI3K inhibitor; 60 mg/kg compound A; FIG. 9 left panel
B cell function = assay: TNP-Ficoll immunization, antibody production (FIG. 8); type: in vivo; conditions: mice immunized with TNP-Ficoll, 7 days, 70 mg/kg GDC0941, 30, 60 or 120 mg/kg Compound A
Protocol: Mice were immunized with TNP-Ficoll and treated with 1) vehicle; 2) 70 mg/kg GDC0941; 3) 30 mg/kg Compound A; 4) 60 mg/kg Compound A; or 5) 120 mg/kg Compound A for 7 days. Antibody production was measured as a percentage of control group that were treated with vehicle.

MZB cells = MZB cells in mouse spleen (FIG. 9, right panel); type: in vivo; conditions: 70 mg/kg Pan-PI3K inhibitor compared to 60 mg/kg Compound A
[4] = system: MDA-MB-361 (PI3Kα/HER2 carcinoma) tumors; assay: In vivo efficacy in xenogenic mouse model of breast cancer; design: species or system Nude mice; conditions: 70 mg/kg, FIG. 9 left panel
Protocol: Blood glucose was monitored periodically following administration of treatment.
Treatment of tumors (MDA-MB-361) with compounds was discontinued on Day 30. Tumors were measured every 2-5 days.

marginal zone B cells = assay: Marginal zone B cells in mouse spleen (FACS); type: in vivo; conditions: 70 mg/kg, spleens harvested 2 hrs after the last dose, FIG. 9
Protocol: The effect of the compounds on the localization/viability of marginal zone B cells in the spleen is also evaluated at the conclusion of treatment.
Spleens were harvested 2 hrs after the last dose, processed and stained with appropriate antibodies (marginal zone B cell: B220+;CD23−;CD21hi) and analyzed for staining on GUAVA EasyCyte FACS machine using Guava Cytosoft 5.2 software.

[5] = system: anti-TNP antibody production; assay: TNP-Ficoll T-cell independent B-cell activation assay; type: in vivo, mice; conditions: 70 mg/kg GDC0941 for 7 days, FIG. 8
Protocol: To test the effects of the compounds of the present invention in suppressing T cell independent antibody production, the TNP-Ficoll B-cell activation assay is used as described herein. Compounds of the present invention are dissolved in an appropriate vehicle (e.g. 5% 1-methyl-2-pyrrolidinone, 85% polyethylene glycol 400, 10% Solutor). Compounds are administered orally approximately 1 hr before TNP-Ficoll treatment to 4-10 week old mice. To study the effects of the compounds on B-cell activation, one set of mice are grouped according to the following table:
Four animals in group 1, and eight animals in groups 2 to 7 are euthanized in CO2 2 hours after the last compound administration on day 7. […]
Serum samples are analyzed for anti-TNP antibody titers by ELISA as described herein. […] HRP substrate (200 μl ABTS solution+30% H2O2+10 ml citrate buffer) is added to each well at 100 μl/well, incubated 2-20 minutes in the dark and the amount of anti-TNP IgG3 is determined spectrophotometrically at 405 nm. Similarly, anti-TNP IgM and total anti-TNP Ab are determined using anti-mouse IgM-HRP and anti-mouse Ig-HRP respectively.
Antibody production was measured using ELISA and plotted as a percentage of control group that were treated with vehicle.

T4 sequence (P48736 whole entry): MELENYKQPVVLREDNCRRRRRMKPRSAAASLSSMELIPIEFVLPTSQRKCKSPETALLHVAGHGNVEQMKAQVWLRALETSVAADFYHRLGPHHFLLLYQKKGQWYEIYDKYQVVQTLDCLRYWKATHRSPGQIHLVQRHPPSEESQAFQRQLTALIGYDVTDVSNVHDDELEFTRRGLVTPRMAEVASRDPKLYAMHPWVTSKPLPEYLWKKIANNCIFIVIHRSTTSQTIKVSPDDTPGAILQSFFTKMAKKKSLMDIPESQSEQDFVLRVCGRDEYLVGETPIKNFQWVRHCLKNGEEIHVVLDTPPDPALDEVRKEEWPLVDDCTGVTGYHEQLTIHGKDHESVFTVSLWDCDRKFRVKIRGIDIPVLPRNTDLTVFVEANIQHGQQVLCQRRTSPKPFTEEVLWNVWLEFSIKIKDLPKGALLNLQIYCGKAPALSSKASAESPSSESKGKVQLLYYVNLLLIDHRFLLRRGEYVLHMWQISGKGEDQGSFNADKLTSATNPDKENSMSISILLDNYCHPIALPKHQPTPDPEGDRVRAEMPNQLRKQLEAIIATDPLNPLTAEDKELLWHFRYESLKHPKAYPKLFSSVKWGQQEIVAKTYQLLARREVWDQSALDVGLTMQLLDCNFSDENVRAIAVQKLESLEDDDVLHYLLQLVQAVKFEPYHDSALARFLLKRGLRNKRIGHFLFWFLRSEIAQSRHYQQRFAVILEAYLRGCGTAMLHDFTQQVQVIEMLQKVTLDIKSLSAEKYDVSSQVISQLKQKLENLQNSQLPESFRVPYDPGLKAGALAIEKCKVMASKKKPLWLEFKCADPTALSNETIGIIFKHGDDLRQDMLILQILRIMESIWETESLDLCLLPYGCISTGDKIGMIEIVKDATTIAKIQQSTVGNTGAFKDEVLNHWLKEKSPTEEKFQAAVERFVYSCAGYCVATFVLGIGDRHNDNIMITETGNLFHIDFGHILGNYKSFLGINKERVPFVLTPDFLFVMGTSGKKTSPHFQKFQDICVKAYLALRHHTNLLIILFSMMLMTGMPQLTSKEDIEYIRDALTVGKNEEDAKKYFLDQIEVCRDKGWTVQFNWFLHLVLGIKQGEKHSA
T1 sequence (P42345 1360-2549 limits assumed): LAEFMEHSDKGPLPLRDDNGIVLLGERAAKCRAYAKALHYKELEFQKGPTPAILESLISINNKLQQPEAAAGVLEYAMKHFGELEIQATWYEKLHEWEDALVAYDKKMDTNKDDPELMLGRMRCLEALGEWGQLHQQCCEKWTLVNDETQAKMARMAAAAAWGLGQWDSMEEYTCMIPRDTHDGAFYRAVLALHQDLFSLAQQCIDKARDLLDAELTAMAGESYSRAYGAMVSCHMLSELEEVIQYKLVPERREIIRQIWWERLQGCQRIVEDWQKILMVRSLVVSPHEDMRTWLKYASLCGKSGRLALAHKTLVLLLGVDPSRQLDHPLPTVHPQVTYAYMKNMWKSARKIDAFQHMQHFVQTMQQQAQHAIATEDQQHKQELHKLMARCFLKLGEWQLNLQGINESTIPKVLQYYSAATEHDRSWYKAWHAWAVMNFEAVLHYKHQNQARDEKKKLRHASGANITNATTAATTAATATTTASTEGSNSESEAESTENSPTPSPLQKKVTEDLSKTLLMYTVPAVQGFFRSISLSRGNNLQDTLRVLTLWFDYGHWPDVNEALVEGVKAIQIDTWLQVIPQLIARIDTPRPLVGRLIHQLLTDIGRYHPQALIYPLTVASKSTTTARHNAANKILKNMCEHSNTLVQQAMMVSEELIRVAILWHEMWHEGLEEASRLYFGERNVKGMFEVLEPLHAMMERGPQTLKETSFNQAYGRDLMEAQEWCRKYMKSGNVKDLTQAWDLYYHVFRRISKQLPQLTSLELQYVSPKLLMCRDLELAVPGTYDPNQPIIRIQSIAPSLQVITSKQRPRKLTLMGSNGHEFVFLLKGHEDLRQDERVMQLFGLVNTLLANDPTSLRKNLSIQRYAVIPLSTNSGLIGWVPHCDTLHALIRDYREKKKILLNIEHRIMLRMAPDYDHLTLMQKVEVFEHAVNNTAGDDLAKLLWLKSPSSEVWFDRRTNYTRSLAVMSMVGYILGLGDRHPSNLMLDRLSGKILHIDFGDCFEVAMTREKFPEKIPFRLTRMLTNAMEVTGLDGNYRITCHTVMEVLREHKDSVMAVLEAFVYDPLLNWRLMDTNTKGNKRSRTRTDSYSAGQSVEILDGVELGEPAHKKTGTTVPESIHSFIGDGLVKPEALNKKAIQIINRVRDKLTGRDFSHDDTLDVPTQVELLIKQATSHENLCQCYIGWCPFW
T5 sequence (O00329 whole entry): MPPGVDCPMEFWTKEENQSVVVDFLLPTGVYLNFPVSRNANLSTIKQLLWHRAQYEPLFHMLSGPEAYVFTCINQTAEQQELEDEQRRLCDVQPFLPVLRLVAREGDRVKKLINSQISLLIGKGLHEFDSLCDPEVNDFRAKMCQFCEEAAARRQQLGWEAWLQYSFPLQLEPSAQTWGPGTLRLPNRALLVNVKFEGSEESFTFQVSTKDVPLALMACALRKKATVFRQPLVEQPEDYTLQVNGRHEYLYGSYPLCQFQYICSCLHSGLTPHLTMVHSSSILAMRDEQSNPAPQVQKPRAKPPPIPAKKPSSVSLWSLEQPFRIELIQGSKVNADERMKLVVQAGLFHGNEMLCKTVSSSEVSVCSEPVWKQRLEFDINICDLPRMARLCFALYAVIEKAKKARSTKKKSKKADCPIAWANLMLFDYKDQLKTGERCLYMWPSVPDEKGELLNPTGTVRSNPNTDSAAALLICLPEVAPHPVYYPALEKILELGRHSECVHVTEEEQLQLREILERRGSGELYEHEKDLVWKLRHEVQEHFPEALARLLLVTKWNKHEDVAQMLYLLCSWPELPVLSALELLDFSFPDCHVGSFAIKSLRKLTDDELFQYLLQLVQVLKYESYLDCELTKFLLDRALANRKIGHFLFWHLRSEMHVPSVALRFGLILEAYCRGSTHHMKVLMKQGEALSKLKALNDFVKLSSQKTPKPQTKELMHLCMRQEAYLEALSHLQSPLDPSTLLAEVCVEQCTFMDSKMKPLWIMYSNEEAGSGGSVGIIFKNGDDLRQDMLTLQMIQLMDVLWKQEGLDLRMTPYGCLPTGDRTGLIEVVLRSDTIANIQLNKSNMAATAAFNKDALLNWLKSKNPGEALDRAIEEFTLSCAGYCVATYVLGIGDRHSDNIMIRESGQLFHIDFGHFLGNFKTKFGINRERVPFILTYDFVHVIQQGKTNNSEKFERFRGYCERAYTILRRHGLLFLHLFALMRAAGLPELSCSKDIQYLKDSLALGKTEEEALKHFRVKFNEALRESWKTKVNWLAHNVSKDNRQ
T5 sequence (P27986 whole entry partner): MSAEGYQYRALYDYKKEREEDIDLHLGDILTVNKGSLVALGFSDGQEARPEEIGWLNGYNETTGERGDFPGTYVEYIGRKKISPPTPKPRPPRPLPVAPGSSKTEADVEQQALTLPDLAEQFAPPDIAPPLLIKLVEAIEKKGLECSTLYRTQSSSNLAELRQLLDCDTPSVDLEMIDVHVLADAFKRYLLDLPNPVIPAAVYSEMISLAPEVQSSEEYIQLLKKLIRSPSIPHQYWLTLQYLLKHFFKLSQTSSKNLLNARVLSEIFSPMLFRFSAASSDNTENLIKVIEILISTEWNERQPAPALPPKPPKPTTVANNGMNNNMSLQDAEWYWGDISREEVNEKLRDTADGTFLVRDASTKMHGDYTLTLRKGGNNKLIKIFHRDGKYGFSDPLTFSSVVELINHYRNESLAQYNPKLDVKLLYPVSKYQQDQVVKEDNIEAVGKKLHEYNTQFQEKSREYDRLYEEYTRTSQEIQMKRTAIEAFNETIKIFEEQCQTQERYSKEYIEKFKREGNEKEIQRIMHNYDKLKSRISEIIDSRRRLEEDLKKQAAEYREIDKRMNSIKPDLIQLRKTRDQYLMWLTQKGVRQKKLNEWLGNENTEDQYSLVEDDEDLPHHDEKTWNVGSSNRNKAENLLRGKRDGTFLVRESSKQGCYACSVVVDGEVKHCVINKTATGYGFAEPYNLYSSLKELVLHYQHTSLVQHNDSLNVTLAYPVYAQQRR

SMILES	IC50 (mTOR) [nM]	IC50 (PI3K α (p110α/p85α)) [nM]	IC50 (PI3K β (p110β/p85α)) [nM]	IC50 (PI3K γ (p110γ)) [nM]	IC50 (PI3K δ) [nM]	IC50 (PC3) [nM]	also measured
CC(=O)Nc1nc2ccc(-c3ccc4nccc(-c5ccncc5)c4c3)cc2s1 [Compound 2]	> 10000	< 1000	> 10000	< 1000	> 10000	< 10000	–
Nc1nc2cc(-c3ccc4ncc(-c5ccncc5)n4c3)ccc2o1 [Compound 6]	< 10000	< 100	< 10000	–	< 1000	< 10000	IC50 (T47D [1]): < 1000 nM
Cn1c(=O)n(-c2ccc(C(C)(C)C#N)cc2)c2c3cc(-c4ccc5oc(N)nc5c4)ccc3ncc21 [Compound 7]	< 100	< 100	< 100	< 100	< 100	< 100	–
Nc1nc2cc(-c3ccc4ncc(-c5ccncc5)n4n3)ccc2o1 [Compound 10]	< 1000	< 100	< 1000	< 100	–	< 1000	IC50 (T47D [1]): < 1000 nM
Nc1nc2cc(-c3ccc4nnc(C(=O)N5CCOCC5)n4c3)ccc2o1 [Compound 282]	–	> 10000	> 10000	> 10000	> 10000	–	IC50 (T47D [2]): > 10000 nM
COc1ncc(-c2ccc3ncc(C(=O)N4CCOCC4)n3c2)cc1NS(=O)(=O)c1cccnc1 [Compound 462]	–	< 100	< 100	< 100	< 100	–	IC50 (MDA-MB-361; Homo sapiens, MDA-MB-361, Starting with compound 438, proliferation data was obtained using an MDA-MB-361 cell line, read-out: PC3 proliferation (nM)*): < 1000 nM
Nc1nc2cc(-c3ccc4ncc(N5CCNC(=O)C5)cc4n3)ccc2o1 [Compound 580]	–	–	–	–	–	–	IC50 (PI3K α (p110α/p85α); Table 4 (PI3K α inhibitors)): < 100 nM; IC50 (PI3K β (p110β/p85α); Table 4 (PI3K α inhibitors)): < 1000 nM; IC50 (PI3K γ (p110γ); Table 4 (PI3K α inhibitors)): < 100 nM; IC50 (PI3K δ; Table 4 (PI3K α inhibitors)): < 10000 nM; IC50 (MDA-MB-361; Homo sapiens, MDA-MB-361, Table 4 (PI3K α inhibitors), MDA-MB-361, read-out: MDA-MB-361 proliferation (nM)*): < 1000 nM
C[C@H]1CN(C2CN(c3cnc4ccc(-c5ccc6oc(N)nc6c5)nc4n3)C2)CCN1C [Compound 606]	–	–	–	–	–	–	IC50 (mTOR; Table 4 (PI3K α inhibitors)): > 10000 nM; IC50 (PI3K α (p110α/p85α); Table 4 (PI3K α inhibitors)): < 100 nM; IC50 (PI3K β (p110β/p85α); Table 4 (PI3K α inhibitors)): < 10000 nM; IC50 (PI3K γ (p110γ); Table 4 (PI3K α inhibitors)): < 10000 nM; IC50 (PI3K δ; Table 4 (PI3K α inhibitors)): < 1000 nM; IC50 (MDA-MB-361; Table 4 (PI3K α inhibitors), MDA-MB-361, read-out: MDA-MB-361 proliferation (nM)*): < 1000 nM
CS(=O)(=O)N1CCN(Cc2cc3nc(-c4cccc5[nH]ncc45)nc(N4CCOCC4)c3s2)CC1 [Pan-PI3K inhibitor, reference compound]	–	–	–	–	–	–	tumor weight of a breast cancer model [3]: reduction in tumor weight; B cell function in vivo (antibody production as percentage of vehicle control) (B cell function): blocks B cell function in vivo; presence of MZB cells in mouse spleen (MZB cells): reduced presence of MZB cells; tumor weight [4]: reduction in tumor weight; presence of MZB cells in mouse spleen (marginal zone B cells): reduced presence of MZB cells; B cell function in vivo (antibody production, ELISA) [5]: blocks B cell function in vivo
